Experimental data: patent publication US10412961B2, “Substituted 2,3-dihydrobenzofuran compounds and their use as synergists” (Endura SPA, priority 2015, dated 2019)

Assays:
[1] = target: T1, E4, a resistance-associated esterase (Myzus persicae, UniProt P35501); details: compared with PBO; cited from earlier work
T1 sequence (P35501 24-552): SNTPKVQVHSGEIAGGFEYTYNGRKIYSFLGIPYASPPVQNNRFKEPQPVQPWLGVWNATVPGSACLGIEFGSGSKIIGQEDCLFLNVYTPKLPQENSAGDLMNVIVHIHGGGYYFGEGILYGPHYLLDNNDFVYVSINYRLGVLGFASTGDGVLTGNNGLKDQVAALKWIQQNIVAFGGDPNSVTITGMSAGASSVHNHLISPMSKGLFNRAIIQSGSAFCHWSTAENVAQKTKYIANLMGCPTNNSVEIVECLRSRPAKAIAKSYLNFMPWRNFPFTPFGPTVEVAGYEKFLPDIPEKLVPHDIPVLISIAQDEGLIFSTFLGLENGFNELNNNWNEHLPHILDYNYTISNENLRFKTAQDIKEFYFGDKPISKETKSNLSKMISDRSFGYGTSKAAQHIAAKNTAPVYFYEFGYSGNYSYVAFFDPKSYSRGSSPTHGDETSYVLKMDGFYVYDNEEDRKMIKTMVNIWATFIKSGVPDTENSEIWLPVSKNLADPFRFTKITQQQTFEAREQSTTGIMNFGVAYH

[2] = target: T2, FE4 Myzus persicae esterases (Myzus persicae, UniProt P35502); assay: Inhibition of esterase FE4, 4-nitrophenyl acetate model substrate assay; type: biochemical; details: purified FE4, 2.5 μL of 10 mM compound in acetone, 10 min incubation, substrate 4-nitrophenyl acetate 0.8 mM, read at 405 nm
T2 construct: would be utilised for the purified esterases from aphids; from tissue; host or cells: aphids (Myzus persicae), purified esterase
T2 sequence (P35502 24-564): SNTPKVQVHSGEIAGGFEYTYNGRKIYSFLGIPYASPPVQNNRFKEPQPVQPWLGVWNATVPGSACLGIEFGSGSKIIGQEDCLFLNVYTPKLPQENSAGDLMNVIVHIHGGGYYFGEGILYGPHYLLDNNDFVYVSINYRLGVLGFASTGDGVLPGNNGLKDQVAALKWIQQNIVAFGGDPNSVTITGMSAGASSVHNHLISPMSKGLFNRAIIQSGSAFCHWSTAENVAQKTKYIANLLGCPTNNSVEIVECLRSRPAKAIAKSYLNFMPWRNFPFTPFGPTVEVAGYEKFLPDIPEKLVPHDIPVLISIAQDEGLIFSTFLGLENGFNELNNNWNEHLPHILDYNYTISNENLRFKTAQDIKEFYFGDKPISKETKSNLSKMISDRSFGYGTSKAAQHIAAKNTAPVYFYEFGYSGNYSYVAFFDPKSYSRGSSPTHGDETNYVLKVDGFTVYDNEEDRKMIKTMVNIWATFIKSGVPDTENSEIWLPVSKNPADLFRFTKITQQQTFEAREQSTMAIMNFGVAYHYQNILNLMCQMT
Protocol: Inhibition of Esterasenzymes by Synergists in Myzus persicae
It was envisaged, therefore, that the ‘esterase intereference assay’ (Khot et al., 2008) would be utilised for the purified esterases from aphids. Various esterase substrates were assessed to find one suitable of monitoring inhibition in an insect homogenate. The Myzus persicae resistance associated esterase, FE4, was used.
Initially the esterase interference assay was carried out, as being the ‘absolute’ protocol for characterizing interactions between the compounds of Example 1-9 and FE4. However, since this is a protracted method, a selection of products already reported in the literature were used to compare the interference assay and the use of a model substrate.
From the literature (Philippou et al., 2013) it is known that 1-naphthyl acetate is not suitable for this assay. Instead, 4-nitrophenyl acetate was used. A 10 mM pNA stock was prepared in acetone and added to 0.02 M phosphate buffer pH 7.0 (final concentration 2 mM). The comparison was made with 6 PBO analogues of variable efficacy.
For the assay 10 μL of purified FE4 was diluted to a total volume of 50 μL by the addition of 0.02 M phosphate buffer, pH 7.0 in individual wells of a microplate (maxisorb, NUNC). To each well, 2.5 μL of 10 mM of the compound of Example 1 and of Example 2 in acetone was added and incubated for 10 mins, with acetone only used as a control. Following incubation, 100 μL of 0.02 phosphate buffer, pH 7.0 and 100 μL of 2 mM 4-nitrophenyl acetate was added (final volume in well 250 μL, final substrate concentration 0.8 mM). Enzyme activity was read at 405 nm in a Spectramax Tmax for 5 min, with readings taken every 5 secs. The rate (mOD min^−1) was calculated by the integrated software, Softmax Pro v.5.4.

Bemisia tabaci CYPCM1 = details: recombinant enzyme 50 μL + 3 μL of 10 mM compound stock in acetone, 10 min incubation at room temperature, substrate 7-ethoxycoumarin, NADPH
Protocol: Ability of the compounds of the invention to inhibit oxidative enzymes (P450), a major mechanism conferring resistance to xenobiotics, was measured using recombinant enzymes corresponding to CYPCM1 from Bemisia tabaci.
Substrate used was 7-ethoxycoumarin for inhibition assays as described by Ulrich and Weber (1972) and adapted to microplate format as described by De Sousa et al. (1995).
Diluted recombinant enzyme (50 μL) was mixed with 3 μL of the above mentioned compound stock solutions, with acetone only used as a control. After 10 min incubation at room temperature, 80 μL of 0.125 mM 7- ethoxycoumarin was added, followed by 10 μL 9.6 mM NADPH (nicotinamide adenine dinucleotide phosphate) in 0.1 M sodium phosphate, pH 7.8, and O-deethylation activity monitored as above. A PBO solution (10 mM) was prepared in the same way as a comparison.

Compound | binding affinity [1] | remaining activity at 10000 µM (stock) [2] [%] | % activity remaining (Bemisia tabaci CYPCM1) [%]
CC#CCOc1ccc2c(c1)OCC2 [EN16-18, 6-(but-2-ynyloxy)-2,3-dihydrobenzofuran] | comparable with PBO |  | 
CC#CCOCc1cc(CCC)cc2c1OCC2 [Example 7, 5-n-propyl-7-((but-2-ynyloxy)methyl)-2,3-dihydrobenzofuran] |  | 19.9 | 17.92
C#CCOCc1cc(CCCC)cc2c1OCC2 [Example 5, 5-n-butyl-7-((prop-2-ynyloxy)methyl)-2,3-dihydrobenzofuran] |  | 18.4 | 87.62
CC#CCOCc1cc(CCCC)cc2c1OCC2 [Example 3, 5-n-butyl-7-((but-2-ynyloxy)methyl)-2,3-dihydrobenzofuran] |  | 19.9 | 3.16
CC#CCOCc1cc(CCCCCC)cc2c1OCC2 [Example 2, 5-n-hexyl-7-((but-2-ynyloxy)methyl)-2,3-dihydrobenzofuran] |  | 35.4 | 27.49
C#CCOc1cc(CCCCCC)cc2c1OCC2 [Example 6, 5-n-hexyl-7-(prop-2-ynyloxy)-2,3-dihydrobenzofuran] |  | 29.8 | 61.16
CC#CCOc1cc(CCCCCC)cc2c1OCC2 [Example 4, 5-n-hexyl-7-(but-2-ynyloxy)-2,3-dihydrobenzofuran] |  | 24 | 39.22
C#CCOCc1cc(CCCCCC)cc2c1OCC2 [Example 1, 5-n-hexyl-7-((prop-2-ynyloxy)methyl)-2,3-dihydrobenzofuran] |  | 26.2 | 
C#CCOCc1cc(CCC)cc2c1OCC2 [Example 8, 5-n-propyl-7-((prop-2-ynyloxy)methyl)-2,3-dihydrobenzofuran] |  | 23.9 | 86.22
